Laboratory results: article PMC7815808, “Enzyme and lateral flow monoclonal antibody-based immunoassays to simultaneously determine spirotetramat and spirotetramat-enol in foodstuffs” (Scientific Reports, 2021)
“And” between values parts separate entries of the source, which are not always exact repeats. Equal values may be shown once.

Tests used:
mAbs to SP and SP-enol = assay: Direct cELISA, binding of analytes and other pesticides by the generated mAbs; parameters: species or system mouse; conditions: for binding by the antibodies: other pesticides, insecticides and fungicides
Excerpt: Six mouse mAbs were obtained; three were from immunogen BSA‒SPm—named SPm#23, SPm#25, and SPm#216—and three from conjugate BSA‒SPo—named SPo#227, SPo#237, and SPo#243. These antibodies contained κ light chains and were of the IgG1 isotype, except mAb SPm#25 which was IgG2a. The affinity to SP and SP-enol was studied by checkerboard cELISA in the capture antibody-coated direct format, using homologous and heterologous enzyme tracers (with the same or different hapten, respectively, than the immunizing conjugate). SP and SP-enol standards were prepared in PBS (10 mM phosphate buffer, pH 7.4, with 140 mM NaCl) and tracer solutions for the competitive step were prepared in PBS-T (PBS containing 0.05% (v/v) Tween-20). […] Tracers with linker site heterologies were not bound by the antibodies. The only exception was mAb SPm#23 which did recognize the heterologous HRP‒SPh conjugate. For this antibody, the spacer arm of hapten SPh was located at a more proximal site than that of hapten […]. The lowest IC50 value with the homologous tracer was around 3 nM for SP-enol whereas binding to SP was moderate (IC50 values were higher than 30 nM).
(§1) Concerning specificity, the two assayed immunogens (BSA‒SPm and BSA‒SPo) afforded equivalent results. […] Cross-reactivity with the main SP metabolites was studied with antibody SPm#23.
(§2) Microplates were precoated with GAM in order to immobilise the mAb. The competitive step was carried out by mixing the analyte solution or diluted sample with the enzyme tracer solution. Standard curves were built in borosilicate glass tubes from 0.03 to 30 nM by a threefold serial dilution of the most concentrated standard solution, and a blank (no analyte) was also run. Concentrated stock solutions of the analytes in anhydrous DMF were used to prepare the most concentrated standard solution—the DMF concentration was always lower than 0.1% (v/v). The complete immunoassay procedure can be found in the Supplementary Information file.
(§3) Table S1. Specificity of the
(§4) 7. Direct competitive ELISA procedure
(§5) The same protocol previously described for this format was applied.7 Briefly, plates were coated with 100 µL per well of 1 µg/mL GAM solution in carbonate‒bicarbonate buffer, pH 9.6, by overnight incubation at 4 °C. Wells were washed four times with washing solution (150 mM NaCl with 0.05% (v/v) Tween-20) after each incubation step. Then, 100 µL per well of specific mAb solution in PBS-T was added and plates were incubated at room temperature during 1 h. The competitive reaction was carried out by adding 50 µL per well of analyte solution or diluted sample and 50 µL per well of tracer […]
(§6) enzyme substrate solution (2 mg/mL o-phenylendiamine and 0.012% (v/v) H2O2 in 25 mM sodium citrate and 62 mM sodium phosphate buffer, pH 5.4). Ten minutes later, the enzyme reaction was stopped by adding 100 µL per well of 1 M H2SO4.
8. Influence of pH and ionic strength […]
(§7) 7 E. Ceballos-Alcantarilla, D. López-Puertollano, C. Agulló, A. Abad-Fuentes, A. Abad-Somovilla, J. V. Mercader.
Combined heterologies for monoclonal antibody-based immunoanalysis of fluxapyroxad. Analyst 143, 5718‒

[1] = Spirotetramat hydrolysis study by direct cELISA; type: physicochemical
Experimental: (§8) In order to simultaneously quantify SP and SP-enol contents in a sample, an in situ procedure for treating the sample with alkaline solution in order to hydrolyse SP into SP-enol was assessed. SP and SP-enol standard solutions were prepared in MilliQ water and diluted fivefold with 40 mM NaOH. The mixtures were incubated 10 min at room temperature and diluted twofold with dilution buffer (200 mM Tris·HCl buffer, pH 8.0, containing 280 mM NaCl). For the competitive step, enzyme tracer solutions were prepared in TBS-T (100 mM Tris·HCl buffer, pH 8.0, containing 140 mM NaCl and 0.05% (v/v) Tween-20). As shown in the inset of Table 2, the obtained standard curves of SP-enol and hydrolysed SP were almost identical. This hydrolysis procedure was validated by HPLC‒MS/MS. SP and SP-enol aqueous solutions (50 µg/mL) were treated with NaOH and, 10 min later, the pH was lowered as previously described. Then, 10 µL of hydrolysed and diluted sample was transferred into 990 µL of acetonitrile and dried with anhydrous MgSO4. Controls without the hydrolysis step were also evaluated. Finally, the contents of SP, SP-enol, SP-keto, and SP-mono in the organic extracts were quantified (Table 2). […] Those samples were also analysed with the studied direct cELISA by running SP-enol standard solutions that had been incubated in NaOH and diluted with dilution buffer like the samples. […] Consequently, the developed hydrolysis procedure seemed to perform adequately for SP and SP-enol residue quantification as SP-enol equivalents.

mAb SPm#23 [2] = assay: Optimized direct cELISA (mAb SPm#23 with tracer HRP–SPh), SP-enol standard curve; type: binding, mouse
Experimental: as §8
The sigmoidal inhibition curve obtained for SP-enol and the final assay conditions of the developed direct cELISA are provided in Table 3. […] The Amax value of the standard curve was near 1.0, the slope was − 1.4, and the background signal was negligible.
as §2
The absorbance of each microplate well was immediately read at 492 nm using a reference wavelength at 650 nm, and values were processed with KCJunior software from BioTek Instruments. The SigmaPlot Version 14.0 was used to fit the experimental values to a standard four-parameter logistic curve. Immunoassay sensitivity was estimated as the concentration of analyte affording a 50% decrease (IC50) of the maximum absorbance (Amax) obtained in the absence of analyte. The LOD of the assay was defined as the IC10 of the sigmoidal inhibition curve. The LOQ was experimentally determined as the lowest analyte concentration that provided accurate and precise results using fortified food samples. […]
as §4
The same protocol previously described for this format was applied.7 Briefly, plates were coated with 100 µL per well of 1 µg/mL GAM solution in carbonate‒bicarbonate buffer, pH 9.6, by overnight incubation at 4 °C. Wells were washed four times with washing solution (150 mM NaCl with 0.05% (v/v) Tween-20) after each incubation step. […]

[3] = Spirotetramat hydrolysis study by HPLC‒MS/MS; type: physicochemical; parameters: content found by HPLC–MS/MS, sample treatment A / content found by HPLC–MS/MS, sample treatment B / content found by HPLC–MS/MS, sample treatment C / content found by HPLC–MS/MS, sample treatment D: unit not given beside the values; conditions: for content found by HPLC–MS/MS, sample treatment A: SP hydrolysed (40 mM NaOH, 10 min, room temperature); for content found by HPLC–MS/MS, sample treatment B: SP without hydrolysis; for content found by HPLC–MS/MS, sample treatment C: SP-enol hydrolysed (40 mM NaOH, 10 min, room temperature)
Experimental: as §8
SP, SP-enol, SP-keto, and SP-mono standard solutions were prepared by serial dilution in acetonitrile from 1 to 2500 μg/L in amber glass vials and kept at − 20 °C. The injection volume was 5 µL and the column temperature was 45 °C. The analysis was carried out using a C18 reverse phase column with a gradient of 0.2% (v/v) formic acid in water (A) and acetonitrile (B) as mobile phase at a flow rate of 0.3 mL/min. The elution profile was 0‒3 min, from 5% B to 95% B, 3.0‒3.5 min, 95% B, 3.5‒3.6 min, from 95% B to 5% B, and 3.6‒8 min, 5% B. Spectra were acquired in positive ionization multiple reaction monitoring mode with interchannel delay of 0.02 s.

mAb SPm#23 [4] = assay: Antibody specificity (cross-reactivity) of the selected mAb; type: binding, mouse; conditions: for CR (%): cross-reactivity of the selected mAb, SP-enol = 100, n=3
Experimental: as §1, §2, §3, §4, §5, §6
8. Influence of pH and ionic strength
Figure S5. Influence of pH and ionic strength over the Amax and IC50 values of the spirotetramat-enol standard curve of the studied direct cELISA.
as §7
Combined heterologies for monoclonal antibody-based immunoanalysis of fluxapyroxad. Analyst 143, 5718‒ […]

[5] = SPm#23 100 μg/L, HRP–SPh 30 μg/L, Tris·HCl pH 8.0, after 40 mM NaOH step, n = 5

## CC12CC1(C)C(=O)N(c1cc(Cl)cc(Cl)c1)C2=O (centres unmarked) [procymidone]
mAbs to SP and SP-enol
  binding by the antibodies: did not bind

## CSC1=N[C@@](C)(c2ccccc2)C(=O)N1Nc1ccccc1 [fenamidone]
mAbs to SP and SP-enol
  binding by the antibodies: did not bind

## CC1(C(=O)Nc2ccc(O)c(Cl)c2Cl)CCCCC1 [fenhexamid]
mAbs to SP and SP-enol
  binding by the antibodies: did not bind

## O=C(Nc1ccccc1-c1ccc(Cl)cc1)c1cccnc1Cl [boscalid]
mAbs to SP and SP-enol
  binding by the antibodies: did not bind

## CO[C@H]1CC[C@]2(CC1)NC(=O)C(c1cc(C)ccc1C)=C2O [SP-enol, spirotetramat-enol]
[1]; incubated in NaOH solution (samples A and C)
  recovery measured as SP-enol by direct cELISA: 117.6%
[1]; non-hydrolysed control solution (samples B and D)
  recovery measured as SP-enol by direct cELISA: 118.0%
mAb SPm#23 [2]; IC10 of the SP-enol inhibition curve, n = 5
  LOD (μg/L) (IC10): 0.02 µg/L and 0.022 ± 0.004 µg/L
mAb SPm#23 [2]; [5]
  IC50: 0.34 nM and 0.344 nM
  IC50 SP-enol: 0.1 ng/mL and 0.104 ± 0.007 ng/mL
mAb SPm#23 [2]; direct cELISA, heterologous bioconjugate
  IC50 value for the sum of spirotetramat and spirotetramat-enol: 0.1 ng/mL
[3]; 40 mM NaOH, 10 min, room temperature, HPLC‒MS/MS
  fate on incubation in basic solution: remained unmodified
[3]
  content found by HPLC–MS/MS, sample treatment A: 116.7
  content found by HPLC–MS/MS, sample treatment B: 1.44
[3]; C
  content found by HPLC–MS/MS, sample treatment C: 149.1
[3]; C, SP-enol hydrolysed, HPLC–MS/MS
  Recovery (%), sample treatment C: 119.6%
[3]; D, SP-enol without hydrolysis
  content found by HPLC–MS/MS, sample treatment D: 142.8
[3]; D, SP-enol without hydrolysis, HPLC–MS/MS
  Recovery (%), sample treatment D: 114.6%
mAbs to SP and SP-enol; homologous tracer, read-out: lowest IC50 value with the homologous tracer
  IC50: ~3 nM
mAb SPm#23 [4]
  CR (%): 100%

## COC1CCC2(CC1)NC(=O)C(c1cc(C)ccc1C)C2O (centres unmarked) [SP-mono, spirotetramat-monohydroxy]
[3]
  content found by HPLC–MS/MS, sample treatment A: 0.01
  content found by HPLC–MS/MS, sample treatment B: 0.12
[3]; C
  content found by HPLC–MS/MS, sample treatment C: 0.02
[3]; D, SP-enol without hydrolysis
  content found by HPLC–MS/MS, sample treatment D: 0.02
mAb SPm#23 [4]
  CR (%): 0.19%
mAb SPm#23 [4]; mAb SPm#23
  binding: almost negligible

## CO/C=C(/C(=O)OC)c1ccccc1Oc1cc(Oc2ccccc2C#N)ncn1 [azoxystrobin]
mAbs to SP and SP-enol
  binding by the antibodies: did not bind

## Oc1ccccc1-c1ccccc1 [o-phenylphenol]
mAbs to SP and SP-enol
  binding by the antibodies: did not bind

## CC1(C)[C@H](C(=O)O[C@H](C#N)c2cccc(Oc3ccccc3)c2)[C@@H]1C=C(Br)Br [deltamethrin]
mAbs to SP and SP-enol
  binding by the antibodies: did not bind

## Cc1cc(C)nc(Nc2ccccc2)n1 [pyrimethanil]
mAbs to SP and SP-enol
  binding by the antibodies: did not bind

## COC1CCC2(CC1)NC(=O)C(O)(c1cc(C)ccc1C)C2=O (centres unmarked) [SP-keto, spirotetramat-ketohydroxy]
[3]
  content found by HPLC–MS/MS, sample treatment A: 0.09
  content found by HPLC–MS/MS, sample treatment B: 0.08
[3]; C
  content found by HPLC–MS/MS, sample treatment C: 0.39
[3]; D, SP-enol without hydrolysis
  content found by HPLC–MS/MS, sample treatment D: 0.43
mAb SPm#23 [4]
  CR (%): 0.02%
mAb SPm#23 [4]; mAb SPm#23
  binding: almost negligible

## N#Cc1c[nH]cc1-c1cccc2c1OC(F)(F)O2 [fludioxonil]
mAbs to SP and SP-enol
  binding by the antibodies: did not bind

## COC1CCC2(CC1)NC(=O)C(c1cc(C)ccc1C)=C2O[C@@H]1O[C@H](CO)[C@@H](O)[C@H](O)[C@H]1O (some centres unmarked) [SP-glu, spirotetramat-enol-glucoside]
mAb SPm#23 [4]
  CR (%): 5.11%
mAb SPm#23 [4]; mAb SPm#23
  affinity to SP-enol, times higher than to the analyte: ≥ 20 times

## CCCOC(=O)NCCCN(C)C [propamocarb]
mAbs to SP and SP-enol
  binding by the antibodies: did not bind

## O=[N+]([O-])NC1=NCCN1Cc1ccc(Cl)nc1 [imidacloprid]
mAbs to SP and SP-enol
  binding by the antibodies: did not bind

## Cc1cc(C2CC2)nc(Nc2ccccc2)n1 [cyprodinil]
mAbs to SP and SP-enol
  binding by the antibodies: did not bind

## C#CCOc1ccc(CCNC(=O)C(OCC#C)c2ccc(Cl)cc2)cc1OC (centres unmarked) [mandipropamid]
mAbs to SP and SP-enol
  binding by the antibodies: did not bind

## CC(Cc1ccc(C(C)(C)C)cc1)CN1C[C@@H](C)O[C@@H](C)C1 (some centres unmarked) [fenpropimorph]
mAbs to SP and SP-enol
  binding by the antibodies: did not bind

## COC(=O)N(OC)c1ccccc1COc1ccn(-c2ccc(Cl)cc2)n1 [pyraclostrobin]
mAbs to SP and SP-enol
  binding by the antibodies: did not bind

## c1ccc2[nH]c(-c3cscn3)nc2c1 [thiabendazole]
mAbs to SP and SP-enol
  binding by the antibodies: did not bind

## Cc1cc(C)c(C2=C(OC(=O)CC(C)(C)C)C3(CCCC3)OC2=O)c(C)c1 [spiromesifen]
mAbs to SP and SP-enol
  binding by the antibodies: did not bind

## N#Cc1c(Cl)c(Cl)c(Cl)c(C#N)c1Cl [chlorothalonil]
mAbs to SP and SP-enol
  binding by the antibodies: did not bind

## CCC(C)(C)C(=O)OC1=C(c2ccc(Cl)cc2Cl)C(=O)OC12CCCCC2 [spirodiclofen]
mAbs to SP and SP-enol
  binding by the antibodies: did not bind

## CCCN(CC)CC1COC2(CCC(C(C)(C)C)CC2)O1 (centres unmarked) [spiroxamine]
mAbs to SP and SP-enol
  binding by the antibodies: did not bind

## CNC(=O)/C(=N/OC)c1ccccc1COc1cc(C)ccc1C [dimoxystrobin]
mAbs to SP and SP-enol
  binding by the antibodies: did not bind
